{
  "source": "patent US20020045638A1",
  "about": "“Method of treating estrogen receptor positive carcinoma” (priority 2000, published 2002)",
  "key": {"[1]": {"test_system": "BG-1 human ovarian cancer cells", "assay": "Inhibition of growth of BG-1 ovarian cancer cells (MTT), with MacSynergy II synergy analysis", "type": "cell-based", "conditions": "for inhibition at 0.005 µM / inhibition at 0.01 µM / inhibition at 0.05 µM / inhibition at 0.1 µM / inhibition at 0.2 µM / inhibition at 0.4 µM: Homo sapiens, read-out: Percent Inhibition; for Percent Inhibition: Table G, ERA-923 0 nM", "protocol": "In these test procedures, rapamycin 42-ester with 3-hydroxy-2-(hydroxymethyl)-2-methylpropionic acid was used as a representative rapamycin, and 2-(4-hydroxy-phenyl)-3-methyl-1-[4-(2-piperdin-1-yl-ethoxy)-benzyl-1 H-indol-5-ol, raloxifene, and 4-hydroxytamoxifen were used as representative antiestrogens.\nOne day before the experiment, cells were plated in 96-well plates at a cell density of 2,500 cells/well in IMEM medium supplemented with 10% fetal bovine serum. The next day, cells were treated with various concentrations of antiestrogen and rapamycin 42-ester with 3-hydroxy-2-(hydroxymethyl)-2-methylpropionic acid (referred to as CCI-779 in the tables below). Five or six-days later, cell growth was monitored."}, "MCF-7 tumors": {"test_system": "MCF-7 tumors", "assay": "Growth of MCF-7 breast carcinoma implanted in nude mice", "type": "in vivo", "conditions": "for Tumor size (mean ± standard error): 5 mg/kg CCI-779 PO q2d days 1-9", "protocol": "In the third standard pharmacological test procedure, mice implanted with MCF-7 tumors were treated with a combination of ERA-923 and CCI-779. […] ERA-923 was dissolved in 1% Tween 80 and 0.9% NaCl Injection USP. Drug was aliquoted into daily doses using 10.0 ml glass bottles and frozen at −20° C. until needed. CCI-779 was made fresh using a 5% ETOH, 4.9% Phosal and 0.1% Tween 80 in Sterile Water. 0.2 ml of each drug was given orally starting the day after tumor implantation. ERA 923 was given daily for the duration of the experiment and CCI-779 was given every other day for the first 10 days. The control vehicles were given on the same regime as the drugs. MCF7 cells were cultured in IMEM containing 5% Fetal Bovine Serum with passages varying from 2-20. After trypsinization tumors were resuspended in IMEM with 2% Serum at a 1:1 ratio with Matrigel. 10 million cells were injected subcutaneously into the mammary tissue of each mouse using a 1.0 ml tuberculin syringe with a 23 3/4 gauge needle. Five to six week old female ovariectomized athymic nu/nu mice (Charles River Labs: Wilmington, Mass.) weighing from 20.0-23.0 g were used. The animals were housed 5 to a cage in a Microisolator Open Rack System (Lab Products: Maywood, N.J.). Each mouse received a 17β-Estradiol pellet (0.72 mg/pellet-60 day release). The pellets were injected with a 10 gauge trochar into the lateral side of the neck between the ear and the shoulder 1-2 weeks prior to tumor injection. Control groups were 15 mice/vehicle whereas the drug groups were 10 mice/drug. Tumors were measured weekly by means of solar calipers (Cole-Parmer Instuments: Vernon Hills, Ill.) and tumor weights were estimated from tumor diameters by the following formula:\nTumor weight (mg)=tumor length (mm)×tumor width (mm)^2/2.\nMice were euthanized 36 days after tumor injection by CO2 inhalation. […] Nude mice bearing MCF-7 tumors were given ERA-923, CCI-779 or the combination of both drugs."}, "[2]": {"test_system": "MCF-7 human breast cancer cells", "assay": "Inhibition of growth of MCF-7 breast cancer cells (MTT), with MacSynergy II synergy analysis;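 also: cells treated five or six days with single agents or combinations, growth read by MTT, synergy surface equals observed % inhibition minus Bliss additive prediction, values under 0% signal antagonism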", "conditions": "for inhibition at 0.005 µM / inhibition at 0.01 µM / inhibition at 0.05 µM / inhibition at 0.1 µM / inhibition at 0.2 µM / inhibition at 0.4 µM: Homo sapiens", "description": "MCF-7 human breast cancer cells were maintained at 37° C. in a humidified atmosphere of 5% CO2 and 95% air in IMEM medium supplemented with 10% fetal bovine serum. […] One day before the experiment, cells were plated in 96-well plates at a cell density of 2,500 cells/well in IMEM medium supplemented with 10% fetal bovine serum. The next day, cells were treated with various concentrations of antiestrogen and rapamycin 42-ester with 3-hydroxy-2-(hydroxymethyl)-2-methylpropionic acid (referred to as CCI-779 in the tables below). Five or six-days later, cell growth was monitored. MTT solution (20 ul) (0.5 mg/ml) was added to each well and cells were incubated for an additional 4 h. The solution was then removed and 150 ul of DMSO added. The intensity of dark blue color corresponding to number of cells was read at 540 nm with an automated plate reader.\nBriefly, theoretical additive interactions were calculated from the dose-response curves of each individual drug based on Bliss independence model. The calculated additive surface was then subtracted from the experimental surface to obtain a synergy surface representing % inhibition above the calculated additive value-synergy index. […] Likewise, any peak below the 0% plane is indicative of antagonism."}},
  "note": "Read-outs that look alike come from different tables or passages of the source.",
  "data": [
    {"smiles": "CO[C@H]1C[C@@H]2CC[C@@H](C)[C@@](O)(O2)C(=O)C(=O)N2CCCC[C@H]2C(=O)O[C@H]([C@H](C)C[C@@H]2CC[C@@H](OC(=O)C(C)(CO)CO)[C@H](OC)C2)CC(=O)[C@H](C)/C=C(\\C)[C@@H](O)[C@@H](OC)C(=O)[C@H](C)C[C@H](C)/C=C/C=C/C=C/1C", "note": "[CCI-779, rapamycin 42-ester with 3-hydroxy-2-(hydroxymethyl)-2-methylpropionic acid]", "values": [
      {"measurement": "inhibition at 0.005 µM", "setting": "[1]; Table H, CCI-779 5 nM, 4-Hydroxytamoxifen 0 nM", "value": 21.4, "unit": "%"},
      {"measurement": "inhibition at 0.01 µM", "setting": "[1]; Table H, CCI-779 10 nM, 4-Hydroxytamoxifen 0 nM", "value": 24.9, "unit": "%"},
      {"measurement": "inhibition at 0.05 µM", "setting": "[1]; Table H, CCI-779 50 nM, 4-Hydroxytamoxifen 0 nM", "value": 56.3, "unit": "%"},
      {"measurement": "inhibition at 0.1 µM", "setting": "[1]; Table H, CCI-779 100 nM, 4-Hydroxytamoxifen 0 nM", "value": 56.4, "unit": "%"},
      {"measurement": "inhibition at 0.2 µM", "setting": "[1]; Table H, CCI-779 200 nM, 4-Hydroxytamoxifen 0 nM", "value": 60.7, "unit": "%"},
      {"measurement": "inhibition at 0.4 µM", "setting": "[1]; Table H, CCI-779 400 nM, 4-Hydroxytamoxifen 0 nM", "value": 64.9, "unit": "%"},
      {"measurement": "inhibition at 0.005 µM", "setting": "[1]; Table I, CCI-779 5 nM, Raloxifene 0 nM", "value": 8.26, "unit": "%"},
      {"measurement": "inhibition at 0.01 µM", "setting": "[1]; Table I, CCI-779 10 nM, Raloxifene 0 nM", "value": 12.5, "unit": "%"},
      {"measurement": "inhibition at 0.05 µM", "setting": "[1]; Table I, CCI-779 50 nM, Raloxifene 0 nM", "value": 37.7, "unit": "%"},
      {"measurement": "inhibition at 0.1 µM", "setting": "[1]; Table I, CCI-779 100 nM, Raloxifene 0 nM", "value": 42.1, "unit": "%"},
      {"measurement": "inhibition at 0.2 µM", "setting": "[1]; Table I, CCI-779 200 nM, Raloxifene 0 nM", "value": 48.4, "unit": "%"},
      {"measurement": "inhibition at 0.4 µM", "setting": "[1]; Table I, CCI-779 400 nM, Raloxifene 0 nM", "value": 53, "unit": "%"},
      {"measurement": "Percent Inhibition", "setting": "[1]; CCI-779 5 nM", "value": 19.98, "unit": "%"},
      {"measurement": "Percent Inhibition", "setting": "[1]; CCI-779 10 nM", "value": 22.68, "unit": "%"},
      {"measurement": "Percent Inhibition", "setting": "[1]; CCI-779 50 nM", "value": 49.76, "unit": "%"},
      {"measurement": "Percent Inhibition", "setting": "[1]; CCI-779 100 nM", "value": 58.79, "unit": "%"},
      {"measurement": "Percent Inhibition", "setting": "[1]; CCI-779 200 nM", "value": 55.65, "unit": "%"},
      {"measurement": "Percent Inhibition", "setting": "[1]; CCI-779 400 nM", "value": 61.94, "unit": "%"},
      {"measurement": "Tumor size (mean ± standard error)", "setting": "MCF-7 tumors; day 14 after tumor implantation", "value": "260 ± 18", "unit": "mg"},
      {"measurement": "Tumor size (mean ± standard error)", "setting": "MCF-7 tumors; day 21 after tumor implantation", "value": "485 ± 53", "unit": "mg"},
      {"measurement": "Tumor size (mean ± standard error)", "setting": "MCF-7 tumors; day 28 after tumor implantation", "value": "704 ± 63", "unit": "mg"},
      {"measurement": "Tumor size (mean ± standard error)", "setting": "MCF-7 tumors; day 36 after tumor implantation", "value": "1123 ± 134", "unit": "mg"},
      {"measurement": "inhibition of tumor growth", "setting": "MCF-7 tumors; nude mice bearing MCF-7 tumors, growth inhibition=experimental value−200 (baseline)/control value −200", "value": "approximately 35%"},
      {"measurement": "increase of growth inhibition as estimated by the IC50", "setting": "[2]; CCI-779 in the presence of non-inhibitory concentrations of ERA-923", "value": "approximately 40 fold"},
      {"measurement": "inhibition at 0.005 µM", "setting": "[2]; MCF7, read-out: Percent Inhibition, Table B, CCI-779 5 nM, 4-Hydroxytamoxifen 0 nM", "value": -16.5, "unit": "%"},
      {"measurement": "inhibition at 0.01 µM", "setting": "[2]; MCF7, read-out: Percent Inhibition, Table B, CCI-779 10 nM, 4-Hydroxytamoxifen 0 nM", "value": 1.47, "unit": "%"},
      {"measurement": "inhibition at 0.05 µM", "setting": "[2]; MCF7, read-out: Percent Inhibition, Table B, CCI-779 50 nM, 4-Hydroxytamoxifen 0 nM", "value": 15, "unit": "%"},
      {"measurement": "inhibition at 0.1 µM", "setting": "[2]; MCF7, read-out: Percent Inhibition, Table B, CCI-779 100 nM, 4-Hydroxytamoxifen 0 nM", "value": 24.6, "unit": "%"},
      {"measurement": "inhibition at 0.2 µM", "setting": "[2]; MCF7, read-out: Percent Inhibition, Table B, CCI-779 200 nM, 4-Hydroxytamoxifen 0 nM", "value": 25.2, "unit": "%"},
      {"measurement": "inhibition at 0.4 µM", "setting": "[2]; MCF7, read-out: Percent Inhibition, Table B, CCI-779 400 nM, 4-Hydroxytamoxifen 0 nM", "value": 34, "unit": "%"},
      {"measurement": "inhibition at 0.005 µM", "setting": "[2]; MCF7, read-out: Percent Inhibition, Table C, CCI-779 5 nM, Raloxifene 0 nM", "value": -13.8, "unit": "%"},
      {"measurement": "inhibition at 0.01 µM", "setting": "[2]; MCF7, read-out: Percent Inhibition, Table C, CCI-779 10 nM, Raloxifene 0 nM", "value": -3.3, "unit": "%"},
      {"measurement": "inhibition at 0.05 µM", "setting": "[2]; MCF7, read-out: Percent Inhibition, Table C, CCI-779 50 nM, Raloxifene 0 nM", "value": 35.3, "unit": "%"},
      {"measurement": "inhibition at 0.1 µM", "setting": "[2]; MCF7, read-out: Percent Inhibition, Table C, CCI-779 100 nM, Raloxifene 0 nM", "value": 38.1, "unit": "%"},
      {"measurement": "inhibition at 0.2 µM", "setting": "[2]; MCF7, read-out: Percent Inhibition, Table C, CCI-779 200 nM, Raloxifene 0 nM", "value": 38.1, "unit": "%"},
      {"measurement": "inhibition at 0.4 µM", "setting": "[2]; MCF7, read-out: Percent Inhibition, Table C, CCI-779 400 nM, Raloxifene 0 nM", "value": 39.8, "unit": "%"},
      {"measurement": "inhibition at 0.005 µM", "setting": "[2]; MCF7, read-out: Percent Inhibition, Table E, CCI-779 0 nM + CCI-779 5 nM", "value": -4.19, "unit": "%"},
      {"measurement": "inhibition at 0.01 µM", "setting": "[2]; MCF7, read-out: Percent Inhibition, Table E, CCI-779 0 nM + CCI-779 10 nM", "value": 10.2, "unit": "%"},
      {"measurement": "inhibition at 0.05 µM", "setting": "[2]; MCF7, read-out: Percent Inhibition, Table E, CCI-779 0 nM + CCI-779 50 nM", "value": 49.8, "unit": "%"},
      {"measurement": "inhibition at 0.1 µM", "setting": "[2]; MCF7, read-out: Percent Inhibition, Table E, CCI-779 0 nM + CCI-779 100 nM", "value": 46.8, "unit": "%"},
      {"measurement": "inhibition at 0.2 µM", "setting": "[2]; MCF7, read-out: Percent Inhibition, Table E, CCI-779 0 nM + CCI-779 200 nM", "value": 53.5, "unit": "%"},
      {"measurement": "inhibition at 0.4 µM", "setting": "[2]; MCF7, read-out: Percent Inhibition, Table E, CCI-779 0 nM + CCI-779 400 nM", "value": 55.3, "unit": "%"},
      {"measurement": "inhibition at 0.005 µM", "setting": "[2]; MCF7, read-out: Percent Inhibition, Table E, CCI-779 5 nM + CCI-779 5 nM", "value": 13.2, "unit": "%"},
      {"measurement": "inhibition at 0.01 µM", "setting": "[2]; MCF7, read-out: Percent Inhibition, Table E, CCI-779 5 nM + CCI-779 10 nM", "value": 18.6, "unit": "%"},
      {"measurement": "inhibition at 0.05 µM", "setting": "[2]; MCF7, read-out: Percent Inhibition, Table E, CCI-779 5 nM + CCI-779 50 nM", "value": 49.2, "unit": "%"}
    ]}
  ]
}
